Measurements reported in patent publication US20250313535A1, “ALPHA 4 BETA 7 INTEGRIN MODULATORS AND USES THEREOF” (DICE MOLECULES SV, INC., priority 2022, published 2025).
Like-named read-outs stand apart in the source and are kept apart here.

Columns and labels:
α4β1 integrin = α4β1 integrin (Homo sapiens (Human), UniProt P05556+P13612); experiment: Integrin Adhesion Assay: Protocol 5 (VCAM-coated plate, RPMI-8866 cells with stable LOF mutation of the ITGB7 gene); type: cell-based
Procedure, shortened: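 RPMI-8866 B cells with CRISPR/Cas9 ITGB7 knockout (clonal, verified by flow cytometry) adhered to VCAM-coated wells for 1 h at 37° C in HEPES/NaCl buffer with 1 mM MnCl2, 0.1 mM CaCl2, 1% BSA, 1% DMSO. Bound cells quantified by CellTiter-Glo luminescence after washing; % inhibition versus DMSO and control, 4-parameter fit.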

α4β7 integrin = α4β7 integrin (Homo sapiens (Human), UniProt P13612+P26010); experiment: Integrin Adhesion Assay: Protocol 4 (MAdCAM-coated plate, RPMI-8866 cells with stable LOF mutation of the ITGB1 gene); type: cell-based
Procedure, shortened: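 RPMI-8866 cells with CRISPR/Cas9 knockout of ITGB1 (2×10^6/mL) were added to MAdCAM-coated wells with compound (1% DMSO) in HEPES/NaCl buffer with 1 mM MnCl2, 0.1 mM CaCl2 and 1% BSA, then incubated 1 h at 37 °C. After four washes, adherent cells were quantified by CellTiter-Glo luminescence. Percent inhibition versus DMSO and control compound was fitted to 4-parameter curves.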

[1] = RPMI-8866 cells with stable LOF mutation of the ITGB7 gene, read-out: Mean IC50 α4β1 KO^b
[2] = RPMI-8866 cells with stable LOF mutation of the ITGB1 gene, read-out: Mean IC50 α4β7 KO^a
[3] = Protocol 5, RPMI-8866 cells with LOF mutation of ITGB7, VCAM, read-out: Mean IC50 α4β1 KO
[4] = Protocol 4, RPMI-8866 cells with LOF mutation of ITGB1, MAdCAM, read-out: Mean IC50 α4β7 KO

Sequence of α4β1 integrin (P13612 34-1032): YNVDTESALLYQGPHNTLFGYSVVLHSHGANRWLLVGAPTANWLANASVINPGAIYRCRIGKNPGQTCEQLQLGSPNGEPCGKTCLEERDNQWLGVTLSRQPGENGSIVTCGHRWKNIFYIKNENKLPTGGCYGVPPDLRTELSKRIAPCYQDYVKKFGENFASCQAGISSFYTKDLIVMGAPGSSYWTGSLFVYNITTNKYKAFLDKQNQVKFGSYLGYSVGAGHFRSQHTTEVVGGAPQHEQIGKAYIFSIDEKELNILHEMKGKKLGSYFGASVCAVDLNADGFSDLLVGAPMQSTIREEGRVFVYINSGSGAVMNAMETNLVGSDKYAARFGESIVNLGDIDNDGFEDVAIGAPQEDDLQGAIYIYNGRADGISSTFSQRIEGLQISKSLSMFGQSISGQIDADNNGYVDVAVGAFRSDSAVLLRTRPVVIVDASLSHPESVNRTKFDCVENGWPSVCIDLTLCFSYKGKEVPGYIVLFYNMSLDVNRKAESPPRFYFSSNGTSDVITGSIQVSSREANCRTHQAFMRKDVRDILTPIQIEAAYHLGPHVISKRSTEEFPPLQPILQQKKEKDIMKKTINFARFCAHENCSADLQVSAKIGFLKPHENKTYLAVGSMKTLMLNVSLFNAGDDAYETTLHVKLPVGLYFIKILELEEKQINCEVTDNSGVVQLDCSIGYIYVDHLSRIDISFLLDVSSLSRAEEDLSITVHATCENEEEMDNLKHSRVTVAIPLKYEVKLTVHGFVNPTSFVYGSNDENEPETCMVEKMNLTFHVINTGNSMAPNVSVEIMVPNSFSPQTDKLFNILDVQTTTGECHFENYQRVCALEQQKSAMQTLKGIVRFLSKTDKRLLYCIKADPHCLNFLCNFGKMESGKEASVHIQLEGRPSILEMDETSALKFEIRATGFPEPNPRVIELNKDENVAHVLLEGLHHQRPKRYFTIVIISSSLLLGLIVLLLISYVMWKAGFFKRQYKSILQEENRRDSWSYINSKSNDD
Sequence of α4β1 integrin (P05556 21-798): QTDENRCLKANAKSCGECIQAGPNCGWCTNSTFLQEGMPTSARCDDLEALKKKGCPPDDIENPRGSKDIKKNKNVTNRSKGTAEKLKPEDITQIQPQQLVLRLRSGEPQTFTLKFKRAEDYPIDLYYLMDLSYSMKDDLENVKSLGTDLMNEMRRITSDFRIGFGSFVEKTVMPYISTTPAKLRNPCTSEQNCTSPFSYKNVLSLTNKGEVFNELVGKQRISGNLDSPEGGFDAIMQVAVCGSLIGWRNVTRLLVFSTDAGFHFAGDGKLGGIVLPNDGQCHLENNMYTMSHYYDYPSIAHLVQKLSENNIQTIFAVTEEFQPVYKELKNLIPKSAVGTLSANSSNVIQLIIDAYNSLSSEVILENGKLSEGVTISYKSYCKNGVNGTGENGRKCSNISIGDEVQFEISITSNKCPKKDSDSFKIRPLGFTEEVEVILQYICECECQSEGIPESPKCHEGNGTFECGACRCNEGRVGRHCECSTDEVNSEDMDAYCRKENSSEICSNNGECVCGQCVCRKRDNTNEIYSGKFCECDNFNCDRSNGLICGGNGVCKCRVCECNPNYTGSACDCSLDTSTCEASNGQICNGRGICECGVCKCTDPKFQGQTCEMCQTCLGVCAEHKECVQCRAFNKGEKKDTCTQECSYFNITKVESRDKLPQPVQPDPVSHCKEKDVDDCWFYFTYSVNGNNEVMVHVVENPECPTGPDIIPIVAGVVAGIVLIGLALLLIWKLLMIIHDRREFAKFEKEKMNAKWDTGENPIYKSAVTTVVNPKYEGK
Sequence of α4β7 integrin (P13612 34-1032): as the sequence (P13612 34-1032) above
Sequence of α4β7 integrin (P26010 20-798): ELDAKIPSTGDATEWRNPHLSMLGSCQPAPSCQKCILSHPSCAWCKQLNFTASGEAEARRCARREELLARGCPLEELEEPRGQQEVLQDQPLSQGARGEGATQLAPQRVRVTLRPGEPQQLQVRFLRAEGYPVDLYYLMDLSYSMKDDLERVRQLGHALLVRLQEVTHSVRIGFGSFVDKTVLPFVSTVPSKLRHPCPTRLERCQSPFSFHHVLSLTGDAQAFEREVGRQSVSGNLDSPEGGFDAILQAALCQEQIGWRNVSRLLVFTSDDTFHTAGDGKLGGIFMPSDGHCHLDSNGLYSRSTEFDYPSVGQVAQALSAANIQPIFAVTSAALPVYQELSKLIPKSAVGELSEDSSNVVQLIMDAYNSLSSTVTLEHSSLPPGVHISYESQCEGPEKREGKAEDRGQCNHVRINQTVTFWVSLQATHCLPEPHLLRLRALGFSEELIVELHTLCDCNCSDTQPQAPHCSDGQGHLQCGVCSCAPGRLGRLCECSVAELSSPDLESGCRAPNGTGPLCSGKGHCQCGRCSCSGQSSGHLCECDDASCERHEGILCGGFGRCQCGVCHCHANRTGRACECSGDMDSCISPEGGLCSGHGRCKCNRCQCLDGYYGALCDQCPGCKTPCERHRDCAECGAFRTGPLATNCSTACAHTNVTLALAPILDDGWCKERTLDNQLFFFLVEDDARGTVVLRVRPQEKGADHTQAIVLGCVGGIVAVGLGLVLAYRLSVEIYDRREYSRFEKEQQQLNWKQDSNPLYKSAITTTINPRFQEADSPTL

IC50 (α4β1 integrin; [1])	IC50 (α4β7 integrin; [2])	IC50 (α4β1 integrin; [3])	IC50 (α4β7 integrin; [4])	Structure (SMILES)
> 1000 nM	< 10 nM	–	–	COc1cc(CN(C)C)cc(OC)c1-c1cccc2c(C[C@H](NC(=O)C3(C(F)(F)F)CCN(CC(F)(F)F)CC3)C(=O)O)cccc12 [Compound 478]
–	–	100 to 1000 nM	< 10 nM	O=C(O)[C@H](Cc1cccc2c(-c3ncc(CCN4CCCCC4)c4ccccc34)cccc12)NC(=O)C1(C(F)(F)F)CCN(CC(F)F)CC1 [Compound 955]
> 1000 nM	< 10 nM	–	–	CN(C)Cc1cccc2c(-c3cccc4c(C[C@H](NC(=O)C5(C(F)(F)F)CCN(C6COC6)CC5)C(=O)O)cccc34)nccc12 [Compound 591]
–	–	100 to 1000 nM	< 10 nM	COc1ccc(C2(N(C)C)CC2)c(OC)c1-c1cccc2c(C[C@H](NC(=O)c3c(C)cccc3F)C(=O)O)cccc12 [Compound 1045]
–	–	> 1000 nM	10 to 100 nM	COc1ccc2ccnc(-c3cccc4c(C[C@H](NC(=O)C5(C(F)(F)F)CCN(CC(F)(F)F)CC5)C(=O)O)cccc34)c2c1 [Compound 777]
–	–	100 to 1000 nM	< 10 nM	COc1cccc(CCN2CCC[C@@H](F)C2)c1-c1cccc2c(C[C@H](NC(=O)C3(C(F)(F)F)CCN(CC(F)F)CC3)C(=O)O)cccc12 [Compound 970]
100 to 1000 nM	10 to 100 nM	–	–	Cn1c(=O)c(-c2cccc3c(C[C@H](NC(=O)C4(C(F)(F)F)CCN(C5CCOC5(C)C)CC4)C(=O)O)cccc23)c(C(F)(F)F)c2ccccc21 (stereo partly shown) [Compound 508]
–	–	100 to 1000 nM	< 10 nM	O=C(O)[C@H](Cc1cccc2c(-c3ncc(CN4CCCC4)c4ccccc34)cccc12)NC(=O)C1(C(F)(F)F)CCN(CC(F)F)CC1 [Compound 917]
–	–	> 1000 nM	< 10 nM	O=C(O)[C@H](Cc1cccc2c(-c3ncc(CN4CCOCC4)c4ccccc34)cccc12)NC(=O)C1(C(F)(F)F)CCN(CC(F)(F)F)CC1 [Compound 862]
–	–	> 1000 nM	10 to 100 nM	COc1cccc(CCN2CCC(c3ccccc3)CC2)c1-c1cccc2c(C[C@H](NC(=O)C3(C(F)(F)F)CCN(CC(F)(F)F)CC3)C(=O)O)cccc12 [Compound 973]
–	–	> 1000 nM	< 10 nM	COc1cc(CN2CCCCC2)cc(C(F)(F)F)c1-c1cccc2c(C[C@H](NC(=O)C3(C(F)(F)F)CCN(CC(F)(F)F)CC3)C(=O)O)cccc12 [Compound 824]
–	–	> 1000 nM	< 10 nM	O=C(O)[C@H](Cc1cccc2c(-c3c(CN4CCCCC4)ccc4ccncc34)cccc12)NC(=O)C1(C(F)(F)F)CCN(CC(F)(F)F)CC1 [Compound 802]
–	–	100 to 1000 nM	< 10 nM	COc1cc(CN2CCCCC2)c2cccnc2c1-c1cccc2c(C[C@H](NC(=O)C3(C(F)(F)F)CCN(CC(F)(F)F)CC3)C(=O)O)cccc12 [Compound 728]
–	–	> 1000 nM	10 to 100 nM	COc1c(-c2cccc3c(C[C@H](NC(=O)C4(C(F)(F)F)CCN(CC(F)F)CC4)C(=O)O)cccc23)cc(CN2CCCCC2)cc1C(F)(F)F [Compound 764]
100 to 1000 nM	< 10 nM	–	–	COc1ccc(CN2CCCCC2)c(OC)c1-c1cccc2c(C[C@H](NC(=O)c3c(C)cccc3F)C(=O)O)cccc12 [Compound 621]
–	–	100 to 1000 nM	< 10 nM	CCOCc1cc(CN2CCCCC2)c(-c2cccc3c(C[C@H](NC(=O)c4c(C)cccc4F)C(=O)O)cccc23)c(OC)c1 [Compound 1000]
–	–	> 1000 nM	10 to 100 nM	O=C(O)[C@H](Cc1cccc2c(-c3ncc(CN4CCC(F)CC4)c4ccccc34)cccc12)NC(=O)C1(C(F)(F)F)CCN(CC(F)(F)F)CC1 [Compound 871]

IC50 (α4β1 integrin; [1])	IC50 (α4β7 integrin; [2])	IC50 (α4β1 integrin; [3])	IC50 (α4β7 integrin; [4])	Structure (SMILES)
> 1000 nM	10 to 100 nM	–	–	COc1ccc(CN2CCC(F)(F)CC2)c(OC)c1-c1cccc2c(C[C@H](NC(=O)c3c(F)cccc3Cl)C(=O)O)cccc12 [Compound 605]
–	–	10 to 100 nM	< 10 nM	CN(C)Cc1ccc2c(c1)c(C(F)(F)F)c(-c1cccc3c(C[C@H](NC(=O)C4(C(F)(F)F)CCN(CC(F)(F)F)CC4)C(=O)O)cccc13)c(=O)n2C [Compound 696]
–	–	100 to 1000 nM	< 10 nM	COc1cccc(CN2CCC(C(C)(C)C)CC2)c1-c1cccc2c(C[C@H](NC(=O)c3c(C)cccc3F)C(=O)O)cccc12 [Compound 1027]
–	–	> 1000 nM	< 10 nM	COc1c(CN2CCCCC2)ccc(Cl)c1-c1cccc2c(C[C@H](NC(=O)C3(C(F)(F)F)CCN(CC(F)(F)F)CC3)C(=O)O)cccc12 [Compound 799]
–	–	10 to 100 nM	< 10 nM	COc1cc2c(c(C(F)(F)F)c1-c1cccc3c(C[C@H](NC(=O)C4(C(F)(F)F)CCN(CC(F)(F)F)CC4)C(=O)O)cccc13)CCN(C)C2 [Compound 726]
–	–	> 1000 nM	< 10 nM	COc1cc(CN2CCC(C)(C)CC2)cnc1-c1cccc2c(C[C@H](NC(=O)C3(C(F)(F)F)CCN(CC(F)F)CC3)C(=O)O)cccc12 [Compound 924]
–	–	100 to 1000 nM	< 10 nM	COc1cc(CN2CCCCC2)cc(OC)c1-c1cccc2c(C[C@H](NC(=O)C3(C(F)(F)F)CCN(CC(F)(F)F)CC3)C(=O)O)cccc12 [Compound 794]
> 1000 nM	10 to 100 nM	–	–	COc1ccc(CN2CC(F)(F)C2)c(OC)c1-c1cccc2c(C[C@H](NC(=O)c3c(C)cccc3F)C(=O)O)cccc12 [Compound 627]
–	–	> 1000 nM	< 10 nM	CC1(C(=O)N[C@@H](Cc2cccc3c(-c4ncc(CN5CCCCC5)c5ccccc45)cccc23)C(=O)O)CCN(CC(F)F)CC1 [Compound 687]
100 to 1000 nM	< 10 nM	–	–	CCOCc1cc(OC)c(-c2cccc3c(C[C@H](NC(=O)C4(C(F)(F)F)CCN(CC(F)(F)F)CC4)C(=O)O)cccc23)c(OC)c1 [Compound 430]
–	–	100 to 1000 nM	< 10 nM	COc1cc(CN2CCCCC2)cc(OC)c1-c1cccc2c(C[C@H](NC(=O)c3c(C)cccc3F)C(=O)O)cccc12 [Compound 1019]
–	–	100 to 1000 nM	< 10 nM	O=C(O)[C@H](Cc1cccc2c(-c3ncc(CN4CCCC5(CC5)C4)c4ccccc34)cccc12)NC(=O)C1(C(F)(F)F)CCN(CC(F)(F)F)CC1 [Compound 904]
–	–	> 1000 nM	10 to 100 nM	COc1cc(C(F)(F)F)cc(CN2CCCCC2)c1-c1cccc2c(C[C@H](NC(=O)C3(C(F)(F)F)CCN(CC(F)(F)F)CC3)C(=O)O)cccc12 [Compound 830]
–	–	> 1000 nM	< 10 nM	O=C(O)[C@H](Cc1cccc2c(-c3ncc(CN4CCCC4)c4ccccc34)cccc12)NC(=O)C1(C(F)(F)F)CCN(CC(F)(F)F)CC1 [Compound 918]
–	–	100 to 1000 nM	< 10 nM	COc1ccc(CN2CCC[C@H](F)C2)c(OC)c1-c1cccc2c(C[C@H](NC(=O)C3(C(F)(F)F)CCN(CC(F)(F)F)CC3)C(=O)O)cccc12 [Compound 842]
–	–	> 1000 nM	< 10 nM	Cc1c(CCN2CCC(F)(F)CC2)ccnc1-c1cccc2c(C[C@H](NC(=O)C3(C(F)(F)F)CCN(CC(F)(F)F)CC3)C(=O)O)cccc12 [Compound 716]
> 1000 nM	< 10 nM	–	–	CN(C)Cc1cc(-c2cccc3c(C[C@H](NC(=O)c4c(F)cc(N5CCOC[C@@H]5C(F)(F)F)cc4CN4CCCC4)C(=O)O)cccc23)c2cnccc2c1 [Compound 587]

Structure (SMILES)	IC50 (α4β1 integrin; [1])	IC50 (α4β7 integrin; [2])	IC50 (α4β1 integrin; [3])	IC50 (α4β7 integrin; [4])
O=C(O)[C@H](Cc1cccc2c(-c3nccc4ccc(CCCN5C6CCCC5CC6)cc34)cccc12)NC(=O)C1(C(F)(F)F)CCN(CC(F)(F)F)CC1 [Compound 744]	–	–	> 1000 nM	< 10 nM
